Activity calls are given as the source filed them.
Columns and labels:
[1] = biological target: T1, DNA repair protein RAD52 homolog (Homo sapiens, UniProt P43351); assay type: functional, biochemical
T1 sequence (P43351 whole entry): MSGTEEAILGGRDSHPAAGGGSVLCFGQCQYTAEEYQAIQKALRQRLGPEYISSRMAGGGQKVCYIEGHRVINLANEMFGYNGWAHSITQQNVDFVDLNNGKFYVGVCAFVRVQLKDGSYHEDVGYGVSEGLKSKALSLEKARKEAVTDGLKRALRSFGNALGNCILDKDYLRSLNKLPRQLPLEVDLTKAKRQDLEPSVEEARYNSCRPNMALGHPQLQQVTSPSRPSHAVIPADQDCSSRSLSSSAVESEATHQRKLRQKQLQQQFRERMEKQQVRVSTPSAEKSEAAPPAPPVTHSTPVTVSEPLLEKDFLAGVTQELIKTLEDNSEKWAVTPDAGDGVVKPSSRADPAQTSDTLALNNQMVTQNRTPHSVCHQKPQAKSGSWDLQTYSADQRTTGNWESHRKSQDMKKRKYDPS

Insulin-degrading enzyme [2] = biological target: T2, Insulin-degrading enzyme (Homo sapiens, UniProt P14735); assay: activators of endogenous IDE in HEK cells, dose response, cell-based, fluorescence polarization (AID 588439); assay type: functional
T2 sequence (P14735 whole entry): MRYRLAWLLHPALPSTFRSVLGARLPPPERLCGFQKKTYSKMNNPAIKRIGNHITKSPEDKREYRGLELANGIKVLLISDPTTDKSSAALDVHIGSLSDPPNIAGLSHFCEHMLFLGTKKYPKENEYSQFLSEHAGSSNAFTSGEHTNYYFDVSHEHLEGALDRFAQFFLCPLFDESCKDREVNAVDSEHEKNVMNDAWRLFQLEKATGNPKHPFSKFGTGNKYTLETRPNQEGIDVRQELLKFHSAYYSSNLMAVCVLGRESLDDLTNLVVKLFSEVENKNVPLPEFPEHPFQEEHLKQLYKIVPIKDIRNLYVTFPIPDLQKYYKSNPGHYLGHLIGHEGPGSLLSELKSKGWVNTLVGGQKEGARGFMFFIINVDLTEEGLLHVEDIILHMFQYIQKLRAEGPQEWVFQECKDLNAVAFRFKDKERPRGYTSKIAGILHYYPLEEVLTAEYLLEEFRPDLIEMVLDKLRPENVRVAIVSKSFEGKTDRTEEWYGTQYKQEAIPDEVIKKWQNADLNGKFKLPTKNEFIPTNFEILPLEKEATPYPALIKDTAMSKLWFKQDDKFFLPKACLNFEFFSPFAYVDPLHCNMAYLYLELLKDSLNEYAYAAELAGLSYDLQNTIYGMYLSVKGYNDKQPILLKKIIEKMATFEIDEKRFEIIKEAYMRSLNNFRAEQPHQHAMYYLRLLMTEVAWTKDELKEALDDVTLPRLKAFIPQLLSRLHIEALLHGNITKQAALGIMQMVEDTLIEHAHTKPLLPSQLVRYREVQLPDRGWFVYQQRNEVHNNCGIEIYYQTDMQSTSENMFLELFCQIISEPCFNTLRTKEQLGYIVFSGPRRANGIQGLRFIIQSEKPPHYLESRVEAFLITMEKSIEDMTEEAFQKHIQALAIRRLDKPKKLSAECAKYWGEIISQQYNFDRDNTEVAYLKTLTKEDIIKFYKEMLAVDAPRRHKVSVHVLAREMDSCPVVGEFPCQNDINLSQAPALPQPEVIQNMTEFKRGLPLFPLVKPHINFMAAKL

Insulin-degrading enzyme [3] = biological target: T2, Insulin-degrading enzyme; assay: activators of recombinant IDE enzyme, dose response, counter-screen for IDE activator project, biochemical, fluorescence polarization (AID 588681)
HEK293 [4] = assay: HEK cell cytotoxicity by LDH release, dose response, cytotoxicity control for IDE activator project, fluorescence, HEK cells (AID 588440); assay type: functional, cell-based; details: Homo sapiens;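 note: cytotoxicity by LDH release measuring loss of membrane integrity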
HEK293 [5] = assay: optical interference in Abeta FP readout, dose response, artefact control for IDE activator project, biochemical, fluorescence polarization (AID 588442); assay type: functional, cell-based; details: Homo sapiens
INS1 = assay: inhibitors of cytokine-induced nitrite release, dose response, cell-based, Griess absorbance, INS-1E, dry powder, set 2 (AID 488868); assay type: functional; details: Rattus norvegicus
[6] = ADAM10 inhibitors, peptide cleavage, dose response, biochemical, QFRET (AID 743254);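 note: ADAM10 enzyme with the DM2 quenched FRET peptide as substrate; EDANS fluorescence gain as the protease cuts the substrate; inhibitor potency against ADAM10 proteolytic activity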
[7] = FACS-based assay to assess parasite growth inhibition 48 hr Measured in Cell-Based System Using Flow Cytometry - 2126-03_Inhibitor_Dose_DryPowder_Activity. [Related pubchem assays (depositor defined):AID488774]; assay type: functional; details: Homo sapiens
Erythrocyte = assay: FACS-based assay to assess parasite growth inhibition 96 hr Measured in Cell-Based System Using Flow Cytometry - 2126-05_Inhibitor_Dose_DryPowder_Activity. [Related pubchem assays (depositor defined):AID488774]; assay type: functional; details: Homo sapiens
[8] = A cell-based HTS for delayed death inhibitors of the malarial parasite plastid Measured in Microorganism System Using Plate Reader - 2126-02_Inhibitor_Dose_DryPowder_Activity.; assay type: functional, organism-based
[9] = A cell-based HTS for delayed death inhibitors of the malarial parasite plastid Measured in Microorganism System Using Plate Reader - 2126-01_Inhibitor_Dose_DryPowder_Activity.; assay type: functional, organism-based
[10] = biological target: Disintegrin and metalloproteinase domain-containing protein 17 (Homo sapiens, UniProt P78536); assay: ADAM17 protease inhibitors, dose response, counter-screen for ADAM10 exosite inhibitor project, biochemical, quenched FRET substrate (AID 743253)
[11] = biological target: T3, Sentrin-specific protease 8 (Homo sapiens, UniProt Q96LD8); assay: SENP8 protease inhibitors, SAR follow-up, biochemical, luminescence, set 2 (AID 588601); assay type: functional
T3 sequence (Q96LD8 whole entry): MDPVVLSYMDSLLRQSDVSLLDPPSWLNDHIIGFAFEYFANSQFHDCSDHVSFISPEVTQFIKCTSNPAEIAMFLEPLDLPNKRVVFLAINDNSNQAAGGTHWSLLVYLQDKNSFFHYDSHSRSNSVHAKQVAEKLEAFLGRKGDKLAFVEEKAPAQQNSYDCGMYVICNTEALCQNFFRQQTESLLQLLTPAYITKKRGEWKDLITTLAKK

[12] = biological target: T4, Sentrin-specific protease 6 (Homo sapiens, UniProt Q9GZR1); assay: SAR Analysis of small molecule inhibitors of Sentrin-specific protease 6 (SENP6) using a Luminescent assay. [Related pubchem assays (depositor defined):AID2582, AID2599]; assay type: functional
T4 sequence (Q9GZR1 whole entry): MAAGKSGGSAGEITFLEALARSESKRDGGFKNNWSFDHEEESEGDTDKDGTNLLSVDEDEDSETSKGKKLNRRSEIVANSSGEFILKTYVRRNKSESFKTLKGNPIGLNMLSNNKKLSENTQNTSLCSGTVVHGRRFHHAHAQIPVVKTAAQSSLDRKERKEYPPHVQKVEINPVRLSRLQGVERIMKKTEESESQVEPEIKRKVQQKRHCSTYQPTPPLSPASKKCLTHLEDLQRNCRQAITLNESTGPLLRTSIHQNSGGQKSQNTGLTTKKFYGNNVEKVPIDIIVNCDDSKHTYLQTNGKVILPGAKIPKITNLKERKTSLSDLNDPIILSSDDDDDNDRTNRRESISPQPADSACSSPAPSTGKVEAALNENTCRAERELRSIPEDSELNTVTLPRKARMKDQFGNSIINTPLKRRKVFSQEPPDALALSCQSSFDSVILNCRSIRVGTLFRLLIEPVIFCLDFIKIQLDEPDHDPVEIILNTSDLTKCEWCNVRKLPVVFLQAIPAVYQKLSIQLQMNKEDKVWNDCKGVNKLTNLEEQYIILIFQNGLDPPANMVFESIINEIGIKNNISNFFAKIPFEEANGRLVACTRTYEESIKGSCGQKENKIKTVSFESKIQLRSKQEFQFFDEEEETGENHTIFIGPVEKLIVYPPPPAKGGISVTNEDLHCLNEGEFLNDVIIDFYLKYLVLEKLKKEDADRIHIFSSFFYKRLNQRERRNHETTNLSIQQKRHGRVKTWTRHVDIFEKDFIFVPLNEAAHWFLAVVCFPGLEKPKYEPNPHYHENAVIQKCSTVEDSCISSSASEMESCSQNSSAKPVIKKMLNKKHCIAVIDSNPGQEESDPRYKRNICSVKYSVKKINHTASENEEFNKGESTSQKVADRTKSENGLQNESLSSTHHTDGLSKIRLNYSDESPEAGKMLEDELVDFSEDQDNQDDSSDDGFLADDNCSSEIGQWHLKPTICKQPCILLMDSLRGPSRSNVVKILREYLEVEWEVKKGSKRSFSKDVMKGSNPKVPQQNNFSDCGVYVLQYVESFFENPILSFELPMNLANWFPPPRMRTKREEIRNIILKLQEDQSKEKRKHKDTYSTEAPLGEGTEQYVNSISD

[13] = biological target: T3, Sentrin-specific protease 8; assay: SENP8 protease inhibitors, SAR follow-up, biochemical, luminescence (AID 504501); assay type: functional
Caspase-3 [14] = biological target: T5, Caspase-3 (Homo sapiens, UniProt P42574); assay: SAR Analysis of small molecule inhibitors of Sentrin-specific proteases (SENPs) using a Caspase-3 Selectivity assay. [Related pubchem assays (depositor defined):AID2540, AID2599, AID434973, AID489001]; assay type: functional
T5 sequence (P42574 whole entry): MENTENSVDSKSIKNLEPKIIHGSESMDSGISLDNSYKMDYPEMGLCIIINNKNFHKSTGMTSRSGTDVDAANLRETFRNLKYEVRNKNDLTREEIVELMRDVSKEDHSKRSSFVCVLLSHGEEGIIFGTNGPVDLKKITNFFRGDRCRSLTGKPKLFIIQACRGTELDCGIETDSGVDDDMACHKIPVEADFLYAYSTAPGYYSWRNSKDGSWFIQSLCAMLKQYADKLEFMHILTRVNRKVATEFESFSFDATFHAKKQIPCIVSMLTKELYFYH

Caspase-3 [15] = biological target: T5, Caspase-3; assay: caspase-3 inhibitors as off-family protease, SAR follow-up, selectivity assay for SENP protease inhibitor project, biochemical, luminescence, set 2 (AID 588599); assay type: functional
[16] = biological target: T4, Sentrin-specific protease 6; assay: SENP6 protease inhibitors, SAR follow-up, biochemical, luminescence, set 2 (AID 588598); assay type: functional
[17] = biological target: T6, Sentrin-specific protease 7 (Homo sapiens, UniProt Q9BQF6); assay: SENP7 protease inhibitors, SAR follow-up, biochemical, luminescence, set 2 (AID 588600); assay type: functional
T6 sequence (Q9BQF6 whole entry): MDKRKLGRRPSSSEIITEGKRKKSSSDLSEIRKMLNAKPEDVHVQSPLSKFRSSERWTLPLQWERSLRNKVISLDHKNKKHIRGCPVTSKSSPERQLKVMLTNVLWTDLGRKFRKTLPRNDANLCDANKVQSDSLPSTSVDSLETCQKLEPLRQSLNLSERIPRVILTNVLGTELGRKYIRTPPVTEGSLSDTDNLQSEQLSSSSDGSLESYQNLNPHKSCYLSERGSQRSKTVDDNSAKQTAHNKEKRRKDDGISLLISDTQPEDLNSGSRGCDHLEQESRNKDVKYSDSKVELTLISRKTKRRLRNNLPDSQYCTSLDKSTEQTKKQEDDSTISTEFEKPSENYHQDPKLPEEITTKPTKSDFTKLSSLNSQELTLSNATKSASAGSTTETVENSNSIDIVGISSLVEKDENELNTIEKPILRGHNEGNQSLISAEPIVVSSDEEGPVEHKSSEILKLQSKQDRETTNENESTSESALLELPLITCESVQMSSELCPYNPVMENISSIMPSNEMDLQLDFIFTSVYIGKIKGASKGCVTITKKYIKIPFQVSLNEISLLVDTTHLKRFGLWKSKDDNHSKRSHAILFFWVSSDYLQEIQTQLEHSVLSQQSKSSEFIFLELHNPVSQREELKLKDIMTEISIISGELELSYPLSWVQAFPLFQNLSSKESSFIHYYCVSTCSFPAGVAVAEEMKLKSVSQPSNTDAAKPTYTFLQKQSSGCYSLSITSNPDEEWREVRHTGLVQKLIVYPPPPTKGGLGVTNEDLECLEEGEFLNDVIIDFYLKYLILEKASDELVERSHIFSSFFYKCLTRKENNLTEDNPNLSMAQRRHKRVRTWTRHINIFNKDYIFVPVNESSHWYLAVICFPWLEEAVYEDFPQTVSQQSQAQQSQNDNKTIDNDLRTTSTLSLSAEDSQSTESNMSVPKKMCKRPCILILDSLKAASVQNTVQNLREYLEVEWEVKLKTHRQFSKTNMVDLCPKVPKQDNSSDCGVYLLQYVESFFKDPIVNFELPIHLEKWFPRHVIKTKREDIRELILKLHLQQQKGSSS

[18] = biological target: T6, Sentrin-specific protease 7; assay: SENP7 protease inhibitors, SAR follow-up, biochemical, luminescence (AID 504497); assay type: functional

Chain of Disintegrin and metalloproteinase domain-containing protein 17 (P78536 whole entry, the tested form may be a part): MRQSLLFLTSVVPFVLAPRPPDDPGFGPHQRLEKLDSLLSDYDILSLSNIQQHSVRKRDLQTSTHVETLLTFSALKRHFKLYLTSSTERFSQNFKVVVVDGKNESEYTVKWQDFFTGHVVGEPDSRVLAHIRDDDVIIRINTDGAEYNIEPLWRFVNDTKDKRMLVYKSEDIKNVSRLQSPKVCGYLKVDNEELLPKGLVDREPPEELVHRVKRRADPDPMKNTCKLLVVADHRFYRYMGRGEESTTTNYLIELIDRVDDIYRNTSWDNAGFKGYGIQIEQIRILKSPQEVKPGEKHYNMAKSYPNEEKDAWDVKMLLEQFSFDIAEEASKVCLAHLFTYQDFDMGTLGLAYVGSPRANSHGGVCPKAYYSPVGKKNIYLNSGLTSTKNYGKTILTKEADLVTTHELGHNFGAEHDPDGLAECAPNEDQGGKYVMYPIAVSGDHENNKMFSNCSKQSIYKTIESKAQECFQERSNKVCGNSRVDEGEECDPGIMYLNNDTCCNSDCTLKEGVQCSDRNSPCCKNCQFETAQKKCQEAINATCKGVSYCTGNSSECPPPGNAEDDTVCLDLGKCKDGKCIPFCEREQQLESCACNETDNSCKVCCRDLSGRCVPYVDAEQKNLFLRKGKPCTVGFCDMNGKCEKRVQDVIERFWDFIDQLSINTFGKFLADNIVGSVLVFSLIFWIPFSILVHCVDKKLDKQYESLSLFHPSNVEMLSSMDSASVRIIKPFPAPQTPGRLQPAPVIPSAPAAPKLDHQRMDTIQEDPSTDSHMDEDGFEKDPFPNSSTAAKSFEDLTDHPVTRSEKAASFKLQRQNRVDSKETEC

With `O=c1c2c(-c3ccccc3)csc2nc2c3ccccc3c(NCCN3CCOCC3)nn12` the AC50 [1] was 1580 nM (active), the EC50 (Insulin-degrading enzyme [2]) was > 54700 nM (inactive) and the EC50 (Insulin-degrading enzyme [3]) was 25200 nM (inactive). The IC50 (HEK293 [4]) was 10600 nM (inactive) and the EC50 (HEK293 [5]) was > 55900 nM (inactive).
For `COc1ccc(S(=O)(=O)N(C)C[C@@H]2Oc3ccc(NC(=O)Nc4cccc5ccccc45)cc3C(=O)N([C@@H](C)CO)C[C@H]2C)cc1`, the AC50 (INS1) was 43800 nM (active).
With `C[C@@H]1CN([C@@H](C)COC(=O)C(C)(C)C)C(=O)c2cc(NC(=O)Nc3ccccc3)ccc2O[C@@H](C)CCCCO[C@H]1CN(C)S(=O)(=O)c1ccc(F)cc1` the IC50 [6] was > 69500 nM (inactive), the AC50 [7] was 4.25 nM (active) and the AC50 (Erythrocyte) was 5 nM (active). For the same molecule, the AC50 [8] was 8.77 nM (active), the AC50 [9] was 5.39 nM (active) and the IC50 [10] was > 69500 nM (inactive).
For `O=C(Nc1nc2ccccc2s1)c1sccc1Cl`, the IC50 [11] was 1220 nM (active), the IC50 [12] was 750 nM (active) and the IC50 [13] was 710 nM (active). The IC50 (Caspase-3 [14]) was 540 nM (active), the IC50 (Caspase-3 [15]) was 954 nM (active) and the IC50 [16] was 1190 nM (active). The IC50 [17] was 1210 nM (active) and the IC50 [18] was 890 nM (active).
